In ChEMBL document CHEMBL1151511, “Structure-based design of an inhibitor modeled at the substrate active site of aldose reductase” (Bioorg Med Chem Lett, 1997):

What was measured:
[1] = biological target: T1, Aldo-keto reductase family 1 member B1 (Bos taurus, UniProt P16116); assay: Tested for inhibition of bovine lens Aldose reductase (ALR2), expressed as IC50
[2] = biological target: T1, Aldo-keto reductase family 1 member B1; assay: Inhibitory activity of compound against modified enzyme form of S-glutathionyl Aldose reductase; Inactive
[3] = biological target: T1, Aldo-keto reductase family 1 member B1; assay: Inhibitory activity of compound against modified enzyme form of S-glutathionyl Aldose reductase

IC50 [1] [µM]	IC50 [2]	IC50 [3] [µM]	Structure (SMILES)
12	Not Active	–	O=C(O)Cn1nc2c(cc1=O)CCc1ccccc1-2
0.15	–	17	O=C(O)Cn1nc2c(c(Cc3nc4cc(C(F)(F)F)ccc4s3)c1=O)CCc1ccccc1-2
